Laboratory results reported in patent US10253081B2, “Glucagon analogues” (Zealand Pharma A/S, priority 2012, dated 2019).
Read-outs that look alike come from different tables or passages of the source. *1 amine or outer side, *2 acyl side, *3 side chain or, on linkers, in order; H or OH if unused. Where a SMILES comes first, the peptide text is derived from it. Side-chain parts run from the residue outwards. [ ]: non-standard residue; d: D form. The star is where a group is joined. γGlu = O=C(O)[C@H](CCC(=O)[*:2])N[*:1]; Palmitoyl = CCCCCCCCCCCCCCCC(=O)*; Aib = CC(C)(N)C(=O)O

Columns and labels:
[1] = biological target: T1, human glucagon-like peptide 1 receptor (GLP-1R) (Homo sapiens, UniProt P43220); assay: GLP-1 receptor efficacy assay (cAMP AlphaScreen, CHO cells); assay type: cell-based; settings: Table 1A; for EC50: CHO cells expressing human GLP-1-R, cAMP, read-out: EC50 hGLP-1R CHO-K1; for Ratio GLP-1/Glucagon: EC50 [GLP-1R]/EC50 [Glucagon-R]
T1 construct: expressed in transfected cells
T1 sequence (P43220 24-463): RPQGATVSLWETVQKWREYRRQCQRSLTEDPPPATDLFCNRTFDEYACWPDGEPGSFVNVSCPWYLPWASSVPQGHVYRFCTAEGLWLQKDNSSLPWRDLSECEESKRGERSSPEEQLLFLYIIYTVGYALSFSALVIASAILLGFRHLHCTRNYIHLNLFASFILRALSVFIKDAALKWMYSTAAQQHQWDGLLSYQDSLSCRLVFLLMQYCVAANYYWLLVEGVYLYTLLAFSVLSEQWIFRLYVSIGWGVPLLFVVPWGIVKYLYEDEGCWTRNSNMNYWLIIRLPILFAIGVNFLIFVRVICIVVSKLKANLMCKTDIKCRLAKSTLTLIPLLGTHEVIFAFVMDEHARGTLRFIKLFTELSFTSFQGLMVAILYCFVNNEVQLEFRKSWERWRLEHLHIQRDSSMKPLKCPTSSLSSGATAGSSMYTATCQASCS
Method in brief: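 Stably transfected CHO clones expressing human GLP-1R or glucagon receptor were treated with increasing peptide concentrations for 15 min at room temperature in KRBH containing 0.1 mM IBMX. After lysis, cAMP was quantified by AlphaScreen; EC50 and efficacy relative to GLP-1 or glucagon reference came from curve fitting.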

[2] = Oral glucose tolerance test (OGTT); assay type: in vivo, C57BL/6J mice; settings: blood glucose AUC 0-120 min, 10 nmol/kg s.c. 4 h before oral glucose 2 g/kg
Method in brief: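 Male C57BL/6J mice (n=7) were fasted for 10 h and given peptide at 10 nmol/kg s.c. in phosphate-buffered saline 4 h before an oral glucose bolus of 2 g/kg; controls got vehicle. Tail-blood glucose was read by glucometer up to 120 min, and AUC was computed by the trapezoidal rule without baseline correction.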

[3] = Pharmacokinetic parameters after subcutaneous and intravenous administration to mice; assay type: in vivo; settings: male, mouse, plasma, 20 nmol/kg, C57Bl/6J mice; for half-life: read-out: Terminal half life (converted); for MRT: read-out: Mean Residence Time
Method in brief: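 Male C57Bl/6J mice (8–11 weeks) given GLP-1-glucagon dual agonists at 20 nmol/kg s.c. (neck) or i.v. (tail vein), dosing solution 4 μM in PBS with 25 mM phosphate, pH 7.4. Plasma sampled to 24 h, measured by LC-MS/MS; parameters by non-compartmental analysis.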

SMILES	EC50 [1] [nM]	Ratio GLP-1/Glucagon [1]	AUC (% Ctrl) [2] [% Ctrl]	clearance ([3]; IV) [mL/min/kg]	half-life ([3]; IV) [h]	Tmax ([3]; SC) [h]	bioavailability ([3]; SC) [%]	MRT ([3]; SC) [h]	half-life ([3]; SC) [h]
CCCCCCCCCCCCCCCC(=O)N[C@@H](CCC(=O)NCCCC[C@H](NC(=O)[C@H](CO)NC(=O)[C@H](CC(=O)O)NC(=O)[C@H](CC(C)C)NC(=O)[C@H](Cc1ccc(O)cc1)NC(=O)[C@H](CCCNC(=N)N)NC(=O)[C@H](CO)NC(=O)[C@H](Cc1ccc(O)cc1)NC(=O)[C@H](CC(=O)O)NC(=O)[C@H](CO)NC(=O)[C@@H](NC(=O)[C@H](Cc1ccccc1)NC(=O)[C@@H](NC(=O)CNC(=O)[C@H](CCC(N)=O)NC(=O)[C@H](CO)NC(=O)[C@@H](N)Cc1c[nH]cn1)[C@@H](C)O)[C@@H](C)O)C(=O)N[C@@H](C)C(=O)N[C@@H](C)C(=O)N[C@@H](CCC(=O)O)C(=O)N[C@@H](CC(=O)O)C(=O)N[C@@H](Cc1ccccc1)C(=O)N[C@H](C(=O)N[C@@H](CCC(=O)O)C(=O)N[C@@H](Cc1c[nH]c2ccccc12)C(=O)N[C@@H](CC(C)C)C(=O)N[C@@H](CC(C)C)C(=O)N[C@@H](CCCNC(=N)N)C(=O)N[C@@H](C)C(N)=O)C(C)C)C(=O)O [Compound 6, H-HSQGTFTSDYSRYLDS-K(Hexadecanoyl-isoGlu)-AAEDFVEWLLRA-NH2] (H-HSQGTFTSDYSRYLDSK([γGlu-Palmitoyl])AAEDFVEWLLRA-NH2)	0.35	0.76	50	0.157	3.7	4	47	10.6	4.3
CCCCCCCCCCCCCCCC(=O)N[C@@H](CCC(=O)NCCCC[C@H](NC(=O)[C@H](CO)NC(=O)[C@H](CC(=O)O)NC(=O)[C@H](CC(C)C)NC(=O)[C@H](Cc1ccc(O)cc1)NC(=O)[C@H](CCCCN)NC(=O)[C@H](CO)NC(=O)[C@H](Cc1ccc(O)cc1)NC(=O)[C@H](CC(=O)O)NC(=O)[C@H](CO)NC(=O)[C@@H](NC(=O)[C@H](Cc1ccccc1)NC(=O)[C@@H](NC(=O)CNC(=O)[C@H](CCC(N)=O)NC(=O)C(C)(C)NC(=O)[C@@H](N)Cc1c[nH]cn1)[C@@H](C)O)[C@@H](C)O)C(=O)N[C@@H](C)C(=O)N[C@@H](C)C(=O)N[C@@H](Cc1c[nH]cn1)C(=O)N[C@@H](CC(=O)O)C(=O)N[C@@H](Cc1ccccc1)C(=O)N[C@H](C(=O)N[C@@H](CCC(=O)O)C(=O)N[C@@H](Cc1c[nH]c2ccccc12)C(=O)N[C@@H](CC(C)C)C(=O)N[C@@H](CCC(=O)O)C(=O)N[C@@H](CO)C(=O)N[C@@H](C)C(N)=O)C(C)C)C(=O)O [Compound 5, H-H-Aib-QGTFTSDYSKYLDS-K(Hexadecanoyl-isoGlu)-AAHDFVEWLESA-NH2] (H-H[Aib]QGTFTSDYSKYLDSK([γGlu-Palmitoyl])AAHDFVEWLESA-NH2)	0.16	0.35	46	0.185	4	4	81	7.6	3.8
CCCCCCCCCCCCCCCC(=O)N[C@@H](CCC(=O)NCCCC[C@H](NC(=O)[C@H](CO)NC(=O)[C@H](CC(=O)O)NC(=O)[C@H](CC(C)C)NC(=O)[C@H](Cc1ccc(O)cc1)NC(=O)[C@H](CCCCN)NC(=O)[C@H](CO)NC(=O)[C@H](Cc1ccc(O)cc1)NC(=O)[C@H](CC(=O)O)NC(=O)[C@H](CO)NC(=O)[C@@H](NC(=O)[C@H](Cc1ccccc1)NC(=O)[C@@H](NC(=O)CNC(=O)[C@H](CCC(N)=O)NC(=O)[C@H](CO)NC(=O)[C@@H](N)Cc1c[nH]cn1)[C@@H](C)O)[C@@H](C)O)C(=O)N[C@@H](C)C(=O)N[C@@H](C)C(=O)N[C@@H](Cc1c[nH]cn1)C(=O)N[C@@H](CC(=O)O)C(=O)N[C@@H](Cc1ccccc1)C(=O)N[C@H](C(=O)N[C@@H](CCC(=O)O)C(=O)N[C@@H](Cc1c[nH]c2ccccc12)C(=O)N[C@@H](CC(C)C)C(=O)N[C@@H](CC(C)C)C(=O)N[C@@H](CCCNC(=N)N)C(=O)O)C(C)C)C(=O)O [Compound 9, H-HSQGTFTSDYSKYLDS-K(Hexadecanoyl-isoGlu)-AAHDFVEWLLR-OH] (H-HSQGTFTSDYSKYLDSK([γGlu-Palmitoyl])AAHDFVEWLLR-OH)	0.35	1.40	57	0.638	0.9	2	34	4.7	2.9
CCCCCCCCCCCCCCCC(=O)N[C@@H](CCC(=O)NCCCC[C@H](NC(=O)[C@H](CO)NC(=O)[C@H](CC(=O)O)NC(=O)[C@H](CC(C)C)NC(=O)[C@H](Cc1ccc(O)cc1)NC(=O)[C@H](CCCNC(=N)N)NC(=O)[C@H](CO)NC(=O)[C@H](Cc1ccc(O)cc1)NC(=O)[C@H](CC(=O)O)NC(=O)[C@H](CO)NC(=O)[C@@H](NC(=O)[C@H](Cc1ccccc1)NC(=O)[C@@H](NC(=O)CNC(=O)[C@H](CCC(N)=O)NC(=O)[C@H](CO)NC(=O)[C@@H](N)Cc1c[nH]cn1)[C@@H](C)O)[C@@H](C)O)C(=O)N[C@@H](C)C(=O)N[C@@H](C)C(=O)N[C@@H](Cc1c[nH]cn1)C(=O)N[C@@H](CC(=O)O)C(=O)N[C@@H](Cc1ccccc1)C(=O)N[C@H](C(=O)N[C@@H](CCC(=O)O)C(=O)N[C@@H](Cc1c[nH]c2ccccc12)C(=O)N[C@@H](CC(C)C)C(=O)N[C@@H](CC(C)C)C(=O)N[C@@H](CO)C(=O)N[C@@H](C)C(N)=O)C(C)C)C(=O)O [Compound 12, H-HSQGTFTSDYSRYLDS-K(Hexadecanoyl-isoGlu)-AAHDFVEWLLSA-NH2] (H-HSQGTFTSDYSRYLDSK([γGlu-Palmitoyl])AAHDFVEWLLSA-NH2)	0.37	0.86	56	0.225	4.1	6	43	8.3	4.3
CCCCCCCCCCCCCCCC(=O)N[C@@H](CCC(=O)NCCCC[C@H](NC(=O)[C@H](CO)NC(=O)[C@H](CC(=O)O)NC(=O)[C@H](CC(C)C)NC(=O)[C@H](Cc1ccc(O)cc1)NC(=O)[C@H](CCCCN)NC(=O)[C@H](CO)NC(=O)[C@H](Cc1ccc(O)cc1)NC(=O)[C@H](CC(=O)O)NC(=O)[C@H](CO)NC(=O)[C@@H](NC(=O)[C@H](Cc1ccccc1)NC(=O)[C@@H](NC(=O)CNC(=O)[C@H](CCC(N)=O)NC(=O)C(C)(C)NC(=O)[C@@H](N)Cc1c[nH]cn1)[C@@H](C)O)[C@@H](C)O)C(=O)N[C@@H](C)C(=O)N[C@@H](C)C(=O)N[C@@H](CCC(=O)O)C(=O)N[C@@H](CC(=O)O)C(=O)N[C@@H](Cc1ccccc1)C(=O)N[C@H](C(=O)N[C@@H](CCC(=O)O)C(=O)N[C@@H](Cc1c[nH]c2ccccc12)C(=O)N[C@@H](CC(C)C)C(=O)N[C@@H](CCC(=O)O)C(=O)N[C@@H](CO)C(=O)N[C@@H](C)C(N)=O)C(C)C)C(=O)O [Compound 16, H-H-Aib-QGTFTSDYSKYLDS-K(Hexadecanoyl-isoGlu)-AAEDFVEWLESA-NH2] (H-H[Aib]QGTFTSDYSKYLDSK([γGlu-Palmitoyl])AAEDFVEWLESA-NH2)	0.2	0.13	44	0.312	4.8	2	80	7.5	5
